How the values were obtained:
[1] = molecular target: serotonin transporter (SERT) (Homo sapiens, UniProt P31645); assay: Serotonin reuptake inhibition, [3H]-5-HT, cells transfected with 5-HT transporter cDNA; conditions: for Triple reuptake inhibition (Ratio %) SERT: compound 1 μM, relative to control without compound (100%), lower value = stronger inhibition
Protocol: (§1) After removing the medium, each compound of Examples or Comparative Examples diluted to 1 μM in uptake buffer was added to a concentration of 200 μL/well and cultured at 37° C. for 15 minutes. 100 μL of uptake buffer containing 20-30 nM [3H]-DA was added and cultured at 37° C. for 5 minutes. The reaction solution was quickly removed and washed three times with 1 mL ice-cold uptake buffer. After dissolving the resultant in 1% SDS (0.5 mL), the degree of binding of radioisotope-labeled dopamine to the transporter was measured.
For norepinephrine(NE) and serotonin(5-HT), the degree of binding of radioisotope-labeled norepinephrine or serotonin to the transporter was measured in the same manner as above, except that cells transfected with NE or 5-HT transporter cDNA were used and [3H]-NE or [3H]-5-HT was used as a substrate.
(§2) In addition, when evaluating the reuptake inhibitory effect on dopamine, norepinephrine, and serotonin, the same method was performed without treating each compound of Examples or Comparative Examples as a control, the degree of binding of radioisotope-labeled dopamine, norepinephrine, and serotonin to the transporter was measured, and by using this as a reference (100%), the triple reuptake inhibitory effect was evaluated as a relative ratio (Ratio %). That is, in the control group, the binding of dopamine, norepinephrine, and serotonin to transporters is not inhibited, but when each compound of Examples is treated and thus the binding is inhibited, the Ratio % value decreases.

[2] = molecular target: norepinephrine transporter (NET) (Homo sapiens, UniProt P23975); assay: Norepinephrine reuptake inhibition, [3H]-NE, cells transfected with NE transporter cDNA; conditions: for Triple reuptake inhibition (Ratio %) NET: compound 1 μM, relative to control without compound (100%), lower value = stronger inhibition
Chain of norepinephrine transporter (NET) (P23975 whole entry, species assumed): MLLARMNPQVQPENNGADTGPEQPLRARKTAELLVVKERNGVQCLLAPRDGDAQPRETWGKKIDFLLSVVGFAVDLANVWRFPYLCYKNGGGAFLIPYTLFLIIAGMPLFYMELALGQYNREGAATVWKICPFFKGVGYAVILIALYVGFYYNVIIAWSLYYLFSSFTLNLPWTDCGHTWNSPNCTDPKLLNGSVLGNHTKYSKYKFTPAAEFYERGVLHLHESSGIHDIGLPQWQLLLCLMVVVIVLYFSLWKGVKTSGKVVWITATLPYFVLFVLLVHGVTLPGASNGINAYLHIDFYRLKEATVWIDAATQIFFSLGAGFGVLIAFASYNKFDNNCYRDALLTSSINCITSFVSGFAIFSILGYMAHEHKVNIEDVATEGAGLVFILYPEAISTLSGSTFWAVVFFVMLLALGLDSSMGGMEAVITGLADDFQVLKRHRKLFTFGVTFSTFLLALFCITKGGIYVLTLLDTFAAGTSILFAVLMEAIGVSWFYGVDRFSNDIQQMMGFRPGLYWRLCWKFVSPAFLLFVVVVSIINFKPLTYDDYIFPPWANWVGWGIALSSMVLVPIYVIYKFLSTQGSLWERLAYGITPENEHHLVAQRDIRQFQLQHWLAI

[3] = molecular target: dopamine transporter (DAT) (Homo sapiens, UniProt Q01959); assay: Dopamine reuptake inhibition, [3H]-DA, HEK-293 cells transfected with dopamine transporter cDNA; conditions: for Triple reuptake inhibition (Ratio %) DAT: compound 1 μM, relative to control without compound (100%), lower value = stronger inhibition
Chain of dopamine transporter (DAT) (Q01959 whole entry, species assumed): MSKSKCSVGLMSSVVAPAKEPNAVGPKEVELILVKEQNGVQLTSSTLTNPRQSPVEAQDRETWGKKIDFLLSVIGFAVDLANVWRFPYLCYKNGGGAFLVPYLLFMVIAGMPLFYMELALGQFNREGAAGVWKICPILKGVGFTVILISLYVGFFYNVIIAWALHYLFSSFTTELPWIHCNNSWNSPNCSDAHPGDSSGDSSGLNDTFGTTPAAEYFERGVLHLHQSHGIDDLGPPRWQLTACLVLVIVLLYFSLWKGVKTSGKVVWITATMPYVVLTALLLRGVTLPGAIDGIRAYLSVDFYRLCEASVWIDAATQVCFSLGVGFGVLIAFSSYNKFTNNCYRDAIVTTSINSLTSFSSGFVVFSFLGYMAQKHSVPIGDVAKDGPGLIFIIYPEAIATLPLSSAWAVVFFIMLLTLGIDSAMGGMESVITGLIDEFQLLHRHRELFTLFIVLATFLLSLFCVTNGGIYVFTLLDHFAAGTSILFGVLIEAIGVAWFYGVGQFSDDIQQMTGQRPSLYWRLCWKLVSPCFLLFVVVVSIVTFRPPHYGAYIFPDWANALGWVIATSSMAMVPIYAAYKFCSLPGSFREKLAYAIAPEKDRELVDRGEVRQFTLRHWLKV
Protocol: as §1, §2

Chain of serotonin transporter (SERT) (P31645 whole entry, species assumed): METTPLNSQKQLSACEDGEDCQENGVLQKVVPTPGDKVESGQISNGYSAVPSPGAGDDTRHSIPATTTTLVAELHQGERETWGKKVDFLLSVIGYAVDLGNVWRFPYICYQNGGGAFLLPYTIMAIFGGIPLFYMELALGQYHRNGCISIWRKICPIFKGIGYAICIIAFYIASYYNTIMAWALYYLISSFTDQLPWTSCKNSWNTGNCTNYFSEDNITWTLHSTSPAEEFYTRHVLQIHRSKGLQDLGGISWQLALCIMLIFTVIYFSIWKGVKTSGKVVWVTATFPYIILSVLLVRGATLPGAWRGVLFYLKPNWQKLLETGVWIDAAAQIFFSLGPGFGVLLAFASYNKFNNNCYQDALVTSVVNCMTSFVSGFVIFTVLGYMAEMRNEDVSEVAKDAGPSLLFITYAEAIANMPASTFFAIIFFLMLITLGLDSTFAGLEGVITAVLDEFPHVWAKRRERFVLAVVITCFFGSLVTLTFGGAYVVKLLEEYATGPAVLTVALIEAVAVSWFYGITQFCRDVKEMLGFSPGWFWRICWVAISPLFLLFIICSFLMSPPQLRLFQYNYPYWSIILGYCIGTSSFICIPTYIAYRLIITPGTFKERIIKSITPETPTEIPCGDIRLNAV

Which IC50 [1] does the source give for `c1ccc(CC2CCN(Cc3nnc(-c4cc5ccccc5[nH]4)[nH]3)CC2)cc1` [Example 1, 2-(5-((4-benzylpiperidin-1-yl)methyl)-4H-1,2,4-triazol-3-yl)-1H-indole] here?
Its IC50 is 3730 nM.

What about the “Triple reuptake inhibition (Ratio %) SERT” value [1] of the same compound?
The value was 91.56%.

And the IC50 [2]?
Its IC50 is 343 nM.

What about the “Triple reuptake inhibition (Ratio %) NET” value [2] of the same compound?
The value was 26.06%.

And the IC50 [3]?
The IC50 was 170 nM.

What about the “Triple reuptake inhibition (Ratio %) DAT” value [3] of the same compound?
Its value is 14.90%.

Which results are given for `Fc1ccc2[nH]c(-c3nnc(CN4CCC(Cc5ccccc5)CC4)[nH]3)cc2c1` [Example 2, 2-(5-((4-benzylpiperidin-1-yl)methyl)-4H-1,2,4-triazol-3-yl)-5-fluoro-1H-indole]?
IC50 [1]: 5200 nM; Triple reuptake inhibition (Ratio %) SERT [1]: 67.47%; IC50 [2]: 14 nM; Triple reuptake inhibition (Ratio %) NET [2]: 2.58%; IC50 [3]: 83 nM; Triple reuptake inhibition (Ratio %) DAT [3]: 3.94%

Which “Triple reuptake inhibition (Ratio %) SERT” value [1] does the source give for `c1ccc(C2CCN(Cc3nnc(-c4cc5ccccc5[nH]4)[nH]3)CC2)cc1` [Example 3, 2-(5-((4-phenylpiperidin-1-yl)methyl)-4H-1,2,4-triazol-3-yl)-1H-indole] here?
The value was 95.94%.

And the “Triple reuptake inhibition (Ratio %) NET” value [2]?
The value was 124.39%.

And the “Triple reuptake inhibition (Ratio %) DAT” value [3]?
The value was 81.14%.

Which results are given for `c1ccc(CN2CCN(Cc3nnc(-c4cc5ccccc5[nH]4)[nH]3)CC2)cc1` [Example 4, 2-(5-((4-benzylpiperazin-1-yl)methyl)-4H-1,2,4-triazol-3-yl)-1H-indole]?
Triple reuptake inhibition (Ratio %) SERT [1]: 90.26%; Triple reuptake inhibition (Ratio %) NET [2]: 64.76%; Triple reuptake inhibition (Ratio %) DAT [3]: 22.39%

What does the source list for `Clc1ccc(CC2CCN(Cc3nnc(-c4cc5ccccc5[nH]4)[nH]3)CC2)cc1Cl` [Example 5, 2-(5-((4-(3,4-dichlorobenzyl)piperidin-1-yl)methyl)-4H-1,2,4-triazol-3-yl)-1H-indole]?
Triple reuptake inhibition (Ratio %) SERT [1]: 91.11%; Triple reuptake inhibition (Ratio %) NET [2]: 78.01%; Triple reuptake inhibition (Ratio %) DAT [3]: 88.53%

Which “Triple reuptake inhibition (Ratio %) SERT” value [1] does the source give for `COc1ccc(CC2CCN(Cc3nnc(-c4cc5ccccc5[nH]4)[nH]3)CC2)cc1` [Example 6, 2-(5-((4-(4-methoxybenzyl)piperidin-1-yl)methyl)-4H-1,2,4-triazol-3-yl)-1H-indole] here?
Its value is 70.39%.

And the “Triple reuptake inhibition (Ratio %) NET” value [2]?
The value was 88.83%.

And the “Triple reuptake inhibition (Ratio %) DAT” value [3]?
The value was 88.63%.

How did the “Triple reuptake inhibition (Ratio %) SERT” value [1] turn out when `Clc1ccc(CC2CCN(Cc3nnc(-c4cc5ccccc5[nH]4)[nH]3)CC2)cc1` [Example 7, 2-(5-((4-(4-chlorobenzyl)piperidin-1-yl)methyl)-4H-1,2,4-triazol-3-yl)-1H-indole] was run?
Its value is 79.48%.

And the “Triple reuptake inhibition (Ratio %) NET” value [2]?
Its value is 103.43%.

And the “Triple reuptake inhibition (Ratio %) DAT” value [3]?
The value was 73.88%.

`Clc1cccc(CC2CCN(Cc3nnc(-c4cc5ccccc5[nH]4)[nH]3)CC2)c1` [Example 8, 2-(5-((4-(3-chlorobenzyl)piperidin-1-yl)methyl)-4H-1,2,4-triazol-3-yl)-1H-indole] was tested. Which “Triple reuptake inhibition (Ratio %) SERT” value [1] did it give?
Its value is 88.65%.

And the “Triple reuptake inhibition (Ratio %) NET” value [2]?
Its value is 66.48%.

And the “Triple reuptake inhibition (Ratio %) DAT” value [3]?
The value was 32.29%.

`c1ccc(CC2CCN(Cc3nnc(-c4ccccc4)[nH]3)CC2)cc1` [Example 9, 4-benzyl-1-((5-phenyl-4H-1,2,4-triazol-3-yl)methyl)piperidine] was tested. Which “Triple reuptake inhibition (Ratio %) SERT” value [1] did it give?
The value was 95.15%.

And the “Triple reuptake inhibition (Ratio %) NET” value [2]?
Its value is 73.45%.

And the “Triple reuptake inhibition (Ratio %) DAT” value [3]?
Its value is 32.29%.

Which IC50 [1] does the source give for `COc1cc2cc(-c3nnc(CN4CCC(Cc5ccccc5)CC4)[nH]3)[nH]c2cc1OC` [Example 12, 2-(5-((4-benzylpiperidin-1-yl)methyl)-4H-1,2,4-triazol-3-yl)-5,6-dimethoxy-1H-indole] here?
Its IC50 is 1150 nM.

What about the “Triple reuptake inhibition (Ratio %) SERT” value [1] of the same compound?
The value was 63.05%.

What about the IC50 [2] of the same compound?
The IC50 was 36 nM.

And the “Triple reuptake inhibition (Ratio %) NET” value [2]?
The value was 3.38%.

And the IC50 [3]?
The IC50 was 174 nM.

What about the “Triple reuptake inhibition (Ratio %) DAT” value [3] of the same compound?
Its value is 5.96%.

Which IC50 [1] does the source give for `COc1ccc2[nH]c(-c3nnc(CN4CCC(Cc5ccccc5)CC4)[nH]3)cc2c1` [Example 13, 2-(5-((4-benzylpiperidin-1-yl)methyl)-4H-1,2,4-triazol-3-yl)-5-methoxy-1H-indole] here?
Its IC50 is 1210 nM.

And the “Triple reuptake inhibition (Ratio %) SERT” value [1]?
Its value is 60.60%.

And the IC50 [2]?
The IC50 was 70 nM.

What about the “Triple reuptake inhibition (Ratio %) NET” value [2] of the same compound?
Its value is 4.78%.

And the “Triple reuptake inhibition (Ratio %) DAT” value [3]?
The value was 10.00%.

Which IC50 [1] does the source give for `Clc1ccc2[nH]c(-c3nnc(CN4CCC(Cc5ccccc5)CC4)[nH]3)cc2c1` [Example 14, 2-(5-((4-benzylpiperidin-1-yl)methyl)-4H-1,2,4-triazol-3-yl)-5-chloro-1H-indole] here?
The IC50 was 1660 nM.

What about the “Triple reuptake inhibition (Ratio %) SERT” value [1] of the same compound?
The value was 74.39%.

What about the IC50 [2] of the same compound?
Its IC50 is 173 nM.

And the “Triple reuptake inhibition (Ratio %) NET” value [2]?
Its value is 5.84%.

And the IC50 [3]?
The IC50 was 16 nM.

What about the “Triple reuptake inhibition (Ratio %) DAT” value [3] of the same compound?
The value was 7.44%.

Which IC50 [1] does the source give for `Cc1ccc2[nH]c(-c3nnc(CN4CCC(Cc5ccccc5)CC4)[nH]3)cc2c1` [Example 15, 2-(5-((4-benzylpiperidin-1-yl)methyl)-4H-1,2,4-triazol-3-yl)-5-methyl-1H-indole] here?
The IC50 was 25000 nM.

And the “Triple reuptake inhibition (Ratio %) SERT” value [1]?
The value was 83.60%.

What about the IC50 [2] of the same compound?
The IC50 was 1110 nM.

And the “Triple reuptake inhibition (Ratio %) NET” value [2]?
The value was 49.82%.

What about the IC50 [3] of the same compound?
Its IC50 is 173 nM.

What about the “Triple reuptake inhibition (Ratio %) DAT” value [3] of the same compound?
Its value is 21.04%.

With `Fc1ccc2cc(-c3nnc(CN4CCC(Cc5ccccc5)CC4)[nH]3)[nH]c2c1` [Example 16, 2-(5-((4-benzylpiperidin-1-yl)methyl)-4H-1,2,4-triazol-3-yl)-6-fluoro-1H-indole] as the compound, how does the IC50 [1] read?
Its IC50 is 3650 nM.

What about the “Triple reuptake inhibition (Ratio %) SERT” value [1] of the same compound?
Its value is 80.93%.

And the IC50 [2]?
The IC50 was 501 nM.

What about the “Triple reuptake inhibition (Ratio %) NET” value [2] of the same compound?
The value was 36.38%.

What about the IC50 [3] of the same compound?
The IC50 was 48 nM.

What about the “Triple reuptake inhibition (Ratio %) DAT” value [3] of the same compound?
Its value is 12.06%.

Which IC50 [1] does the source give for `N#Cc1ccc2[nH]c(-c3nnc(CN4CCC(Cc5ccccc5)CC4)[nH]3)cc2c1` [Example 17, 2-(5-((4-benzylpiperidin-1-yl)methyl)-4H-1,2,4-triazol-3-yl)-1H-indol-5-carbonitrile] here?
Its IC50 is 945 nM.

And the “Triple reuptake inhibition (Ratio %) SERT” value [1]?
Its value is 50.31%.

What about the IC50 [2] of the same compound?
Its IC50 is 226 nM.

And the “Triple reuptake inhibition (Ratio %) NET” value [2]?
Its value is 11.66%.

What about the IC50 [3] of the same compound?
The IC50 was 83 nM.

What about the “Triple reuptake inhibition (Ratio %) DAT” value [3] of the same compound?
The value was 9.25%.

With `COc1ccc2cc(-c3nnc(CN4CCC(Cc5ccccc5)CC4)[nH]3)[nH]c2c1` [Example 18, 2-(5-((4-benzylpiperidin-1-yl)methyl)-4H-1,2,4-triazol-3-yl)-6-methoxy-1H-indole] as the compound, how does the IC50 [1] read?
Its IC50 is 1580 nM.

And the “Triple reuptake inhibition (Ratio %) SERT” value [1]?
The value was 66.40%.

What about the IC50 [2] of the same compound?
Its IC50 is 611 nM.

What about the “Triple reuptake inhibition (Ratio %) NET” value [2] of the same compound?
The value was 22.07%.

What about the IC50 [3] of the same compound?
Its IC50 is 76 nM.

And the “Triple reuptake inhibition (Ratio %) DAT” value [3]?
Its value is 37.07%.

What does the source list for `COc1cccc2cc(-c3nnc(CN4CCC(Cc5ccccc5)CC4)[nH]3)[nH]c12` [Example 19, 2-(5-((4-benzylpiperidin-1-yl)methyl)-4H-1,2,4-triazol-3-yl)-7-methoxy-1H-indole]?
IC50 [1]: 1170 nM; Triple reuptake inhibition (Ratio %) SERT [1]: 81.23%; IC50 [2]: 188 nM; Triple reuptake inhibition (Ratio %) NET [2]: 15.80%; IC50 [3]: 247 nM; Triple reuptake inhibition (Ratio %) DAT [3]: 21.23%

`COC(=O)c1ccc2[nH]c(-c3nnc(CN4CCC(Cc5ccccc5)CC4)[nH]3)cc2c1` [Example 20, methyl 2-(5-((4-benzylpiperidin-1-yl)methyl)-4H-1,2,4-triazol-3-yl)-1H-indol-5-carboxylate] was tested. Which IC50 [1] did it give?
The IC50 was 643 nM.

And the “Triple reuptake inhibition (Ratio %) SERT” value [1]?
Its value is 50.14%.

What about the IC50 [2] of the same compound?
Its IC50 is 748 nM.

And the “Triple reuptake inhibition (Ratio %) NET” value [2]?
The value was 38.22%.

What about the IC50 [3] of the same compound?
The IC50 was 80 nM.

What about the “Triple reuptake inhibition (Ratio %) DAT” value [3] of the same compound?
Its value is 5.14%.

`c1ccc(CC2CCN(Cc3nnc(-c4ccc5ccccc5c4)[nH]3)CC2)cc1` [Example 21, 4-benzyl-1-((5-(naphthalen-2-yl)-4H-1,2,4-triazol-3-yl)methyl)piperidine] was tested. Which IC50 [1] did it give?
Its IC50 is 2090 nM.

And the “Triple reuptake inhibition (Ratio %) SERT” value [1]?
Its value is 50.05%.

What about the IC50 [2] of the same compound?
The IC50 was 619 nM.

And the “Triple reuptake inhibition (Ratio %) NET” value [2]?
Its value is 27.49%.

What about the IC50 [3] of the same compound?
Its IC50 is 259 nM.

What about the “Triple reuptake inhibition (Ratio %) DAT” value [3] of the same compound?
Its value is 20.41%.

With `CC(=O)Nc1ccc2[nH]c(-c3nnc(CN4CCC(Cc5ccccc5)CC4)[nH]3)cc2c1` [Example 66, N-(2-(5-((4-benzylpiperidin-1-yl)methyl)-4H-1,2,4-triazol-3-yl)-1H-indol-5-yl)acetamide] as the compound, how does the “Triple reuptake inhibition (Ratio %) NET” value [2] read?
The value was 58.77%.

And the “Triple reuptake inhibition (Ratio %) DAT” value [3]?
The value was 51.59%.

Which “Triple reuptake inhibition (Ratio %) NET” value [2] does the source give for `CCCCOc1ccc2cc(-c3nnc(CN4CCC(Cc5ccccc5)CC4)[nH]3)[nH]c2c1` [Example 69, 2-(5-((4-benzylpiperidin-1-yl)methyl)-4H-1,2,4-triazol-3-yl)-6-butoxy-1H-indole] here?
Its value is 90.43%.

What about the “Triple reuptake inhibition (Ratio %) DAT” value [3] of the same compound?
The value was 50.33%.
